Laboratory results reported in a melting point compilation (Tetko et al.; mined from patent text by program, amines drawn as free bases though some values may be those of a salt).

With `Nc1c(Cl)cc(C(O)CNCCCCCCOCCc2ccccn2)cc1Cl` (stereo not drawn) the melting point was 94 to 96 °C.
`CCOC(=O)CCC(=O)Nc1cccc(/C=C/c2nc(C3CCC3)cs2)c1` showed a melting point of 98 to 100 °C.
`CN1CCNC(=S)N1c1cc(Cl)cc(Cl)c1` gave a melting point of 240 to 241 °C.
With `CCCOc1ccccc1-c1nc2nnc(OC)nc2c(=O)[nH]1` the melting point was 221 to 222 °C.
In the case of `Nc1ccc(C(c2ccccc2F)n2ccnc2)cc1[N+](=O)[O-]` (stereo not drawn), the melting point is reported as 176 °C.
`CC(C)(O)CNC(=O)CC1CN=C(c2cc3cc(Oc4ccc(S(C)(=O)=O)nc4)cc(OC4CCOCC4)c3[nH]2)S1` (stereo not drawn) showed a melting point of 195 to 196 °C.
In the case of `COc1cc(C=CC(=O)C(Cc2ccccc2)C(=O)C=Cc2ccc(O)c(OC)c2)ccc1O` (stereo not drawn), the melting point is reported as 139 to 141 °C.
`OC(COc1cccnc1)c1cccc(OCc2ccc3ccccc3n2)c1` (stereo not drawn) showed a melting point of 103 to 104 °C.
In the case of `CCCCCCCCCCCCCCOC(=O)c1ccc(OC)c(N)c1`, the melting point is reported as 54 to 56 °C.
In the case of `CC(C)(C)NC(=O)[C@@H]1C[C@H](N2CCOCC2)CN1C(=O)[C@@H](O)[C@H](Cc1ccccc1)NC(=O)[C@H](CC(N)=O)NC(=O)OCc1ccccc1`, the melting point is reported as 115 to 117 °C.
Work on `CCOC(=O)Cc1c(C)n(Cc2cccc(C(F)(F)F)c2)c2ccc(OC)cc12` yielded a melting point of 95 to 97 °C.
`FC(F)(F)c1cc(-c2ccc(Cl)cc2)nc2c(-c3ccncc3)ncn12` showed a melting point of 290 °C.
Compound `CCCCCCC(C(=O)O)n1nnc(NC(=O)c2ccccc2C(=O)O)n1` (stereo not drawn) has a melting point of 140 to 142 °C.
With `CCOC(C)O[C@H]1C(=O)N(C(=S)Nc2ccccc2)[C@H]1c1ccccc1` (stereo partly drawn) the melting point was 108 to 112 °C.
Compound `Cc1cc(CN(Cc2ccsc2)c2sc(-c3ccc(C(F)(F)F)cc3)nc2C)cc(C)c1OC(C)(C)C(=O)O` has a melting point of 90 to 100 °C.
In the case of `CCCCCN1C(=O)C(=O)c2ccccc21`, the melting point is reported as 50 to 51 °C.
With `CCOC(=O)CCC(=O)c1ccc(CCCCN2CCN(c3cccc(C)c3)CC2)cc1` the melting point was 62 to 63 °C.
For `CCCCc1nn(C(F)(F)F)c(C(=O)O)c1Cc1ccc(C2(C(=O)O)CC=CC2)s1`, the melting point was 134 to 135 °C.
Work on `NC1(Cc2ccc(C(=O)Nc3ccncc3)cc2)C=CC=CC1` (stereo not drawn) yielded a melting point of 76.8 to 77.6 °C.
For `O=C(O)C(O)=CC(=O)c1cc(Cc2ccccc2)cn(Cc2ccccc2)c1=O`, the melting point was 158 to 159 °C.
`CC1(C)OC(=O)Nc2ccc(Br)cc21` showed a melting point of 199 to 200 °C.
Compound `CCCCCS(=O)(=O)NC(=O)/C=C/c1ccc(OCCOC)cc1NC(=O)c1ccc(F)cc1F` has a melting point of 140 to 141 °C.
`O=c1c(Cl)cn(-c2cc3[nH]c(=O)c(=O)[nH]c3cc2[N+](=O)[O-])cc1Cl` gave a melting point greater than 300 °C.
In the case of `COc1cc(CSc2ccc(O)cc2)cc(O)c1O`, the melting point is reported as 140 °C.
For `Cc1ccccc1-n1c(-c2sc(Nc3ccc(Cl)cc3)nc2C)nc2ccccc2c1=O`, the melting point was greater than 275 °C.
`CN1CCN(c2cccc3c2C[C@H](NC(=O)CCc2ccccc2)CC3)CC1` gave a melting point of 184 to 186 °C.
For `CCC(O)(CC)[C@@H]1C[C@@H]([C@H](CC2CCCCC2)NC(=O)OC(C)(C)C)OC1=O`, the melting point was 118 to 120 °C.
Work on `COC(=O)c1cncn1C1c2cccc(Cl)c2CC1(C)C` (stereo not drawn) yielded a melting point of 111 to 113 °C.
With `COCCOc1ccc(CCCN2C(=O)c3ccccc3C2=O)c(Oc2ncc(C(F)(F)F)cc2Cl)c1` the melting point was 101 to 103 °C.
Compound `Cc1nc2nc(SCc3ccccc3)nn2cc1Cl` has a melting point of 160 to 161 °C.
`CCCc1c(OCCCOc2ccc([N+](=O)[O-])cc2)ccc(C(C)=O)c1O` showed a melting point of 98 °C.
With `O=c1[nH]ncc2[nH]c(-c3ccc(OC(F)F)c(OC4CC4)c3)cc12` the melting point was 287 to 292 °C.
Work on `CCNC(=C[N+](=O)[O-])NCCSCc1nccs1` yielded a melting point of 115 to 116 °C.
With `C=C1N(C)C(=O)OC12CCN(CC=C(c1ccccc1)c1ccccc1)CC2` the melting point was 126 to 127 °C.
For `COC(=O)C[C@H]1C[C@H](C=Cc2c(-c3ccc(F)cc3)c(-c3ccc(F)cc3)c(C(=O)OCc3ccccc3)n2C(C)C)OC(C)(C)O1`, the melting point was 125 to 127 °C.
`O=C(O)CCC(=O)CCC(=O)Nc1ccc(Cc2ccc(NC(=O)CCC(=O)CCC(=O)O)cc2)cc1` showed a melting point of 158 to 160 °C.
In the case of `Cc1nc(N(Cc2ccccc2)Cc2ccccc2)c2nc(Cc3ccccc3)n(CCc3ccccc3)c2c1C`, the melting point is reported as 139 to 141 °C.
With `O=C1CCOc2cc(OCc3ccccc3)c(F)cc21` the melting point was 155 to 156 °C.
`CN1CCC(c2[nH]c(=O)c3ccccc3c2-c2ccc(F)cc2)CC1` gave a melting point of 269 to 271 °C.
For `O=C(NCCc1ccccn1)c1cnc2cc3c(cc2c1Cl)OCO3`, the melting point was 145 to 146 °C.
`C=C1N(C)C(=O)OC12CCN(C(=O)NCCCC)CC2` showed a melting point of 129 to 130 °C.
For `O=C1Nc2ccc(C(c3ccc(Cl)cc3)n3ccnc3)cc2C(c2cccc(Cl)c2)N1` (stereo not drawn), the melting point was 177 °C.
With `O=C(Cn1cccc(O)c1=O)NCCCCCCNC(=O)Cn1cccc(O)c1=O` the melting point was 240 to 242 °C.
For `O=C(Nc1ccc(Oc2ccnc(N3CCC3)n2)c2ccccc12)c1cc(F)cc(N2CCOCC2)c1`, the melting point was 196 to 197 °C.
For `CCn1cc(C(=O)O)c(=O)c2cc(F)c(N)nc21`, the melting point was 299 to 303 °C.
For `CC(=O)CC(=O)c1ccc2c3c(cccc13)CC2`, the melting point was 59 °C.
With `COc1c([N+](=O)[O-])cc(C(C)(C)C)cc1[N+](=O)[O-]` the melting point was greater than 75 °C.
`CCCCCCCCCCCCN(c1ccccc1)c1cccc2ccccc12` showed a melting point of 116 °C.
In the case of `O=C(c1ccccc1)c1cc(CN2CCN(c3ccccc3)CC2)on1`, the melting point is reported as 100 to 102 °C.
In the case of `CCC(=O)C(=Cc1cc(O)c(O)c(C#N)c1)C(=O)CC`, the melting point is reported as 165 to 173 °C.
Work on `Cc1nc(N)c2nc(C)n(CCOCCCc3ccccc3)c2c1C` yielded a melting point of 118 to 119 °C.
For `CNc1nc(C)c(-c2sc(NC)nc2C)s1`, the melting point was greater than 280 °C.
`Cn1cc(C(=O)CCn2ccnc2)c2ccccc21` gave a melting point of 121 to 123 °C.
`CC(C)c1cc(Cl)nc(C(C)C)c1N` showed a melting point of 53 to 56 °C.
Work on `Cc1ccc(Sc2cncc3sc(C(=O)NC=NN)cc23)cc1` yielded a melting point of 202 to 205 °C.
Work on `Nc1ncccc1-c1nc2cc(-c3cccnc3)cnc2n1-c1ccc(CNS(=O)(=O)c2ccccc2)cc1` yielded a melting point of 217 to 219 °C.
Compound `O=C(O)CCCCCCCOc1ccccc1` has a melting point of 67 to 68 °C.
Compound `OC(c1ccccc1)C1CCN(CCCc2ccccc2)CC1` (stereo not drawn) has a melting point of 87 to 88 °C.
Compound `Nc1ncnc2c1ncn2C1OC(CNC=O)C(O)C1O` (stereo not drawn) has a melting point of 212 to 213 °C.
With `CC1(C)NC(=O)C2CNCCN21` (stereo not drawn) the melting point was 174 °C.
`COc1ccc2c(c1)C(c1ccccc1)NC(=O)N2CC1CC1` (stereo not drawn) showed a melting point of 133 °C.
Work on `O=C(O)c1ccc(C(=O)O)c(-c2nc3ccccc3s2)c1` yielded a melting point of 287 to 288 °C.
In the case of `CCCc1c2c(c(NCC)c3c(=O)cc(C(=O)OCC)oc13)CCCC2`, the melting point is reported as 91.5 °C.
In the case of `CCOC(=O)C1=C(C)NC(C(OC)OC)=C(C(=O)OC)C1c1ccccc1[N+](=O)[O-]` (stereo not drawn), the melting point is reported as 122 to 124 °C.
`O=C1c2ccccc2C(=O)N1CCCCOc1ccc(-n2cnnn2)cc1` gave a melting point of 143 to 145 °C.
Compound `COc1ccc(C(O)c2cccnc2)cc1OC` (stereo not drawn) has a melting point of 76 to 78 °C.
In the case of `CS(=O)(=O)C(=C1CN(C(c2ccccc2)c2ccccc2)C1)c1ccc(F)cc1`, the melting point is reported as 186 °C.
Compound `CN1CCN(C2=Nc3cscc3C(=CC#N)c3cscc32)CC1` has a melting point of 148 to 151 °C.
`CCCc1c(OCc2cccc(C(=O)OCC)c2OCC)ccc(C(C)=O)c1O` gave a melting point of 59 to 62 °C.
For `CC1(C)OC(=S)Nc2ccc(-c3cccc(F)c3F)cc21`, the melting point was 197 to 198 °C.
With `COC(=O)CC1COc2cc(OCc3csc(-c4ccccc4)n3)ccc21` (stereo not drawn) the melting point was 116 to 117 °C.
In the case of `CC(C)(C)OC(=O)NCc1[nH]c(C(=O)O)cc(=O)c1O`, the melting point is reported as greater than 300 °C.
Compound `CC(C)(NC(=O)C1=C(C(=O)Nc2cc(OC3CCCC3)c(Cl)cc2F)CCCC1)c1cccc(F)c1` has a melting point of 231 to 234 °C.
For `CCNC(=O)NCc1ccc(/C=C/C(c2cc(Cl)cc(Cl)c2)C(F)(F)F)cc1Cl` (stereo not drawn), the melting point was 177 to 178 °C.
Compound `Cc1nc2ccc3c(c2o1)C(O)(CC#N)C(C(C)C)C3` (stereo not drawn) has a melting point of 149 to 152 °C.
`CC(C)(C)OC(=O)CCON=C(C(=O)O)c1ccco1` showed a melting point of 74.7 to 77.2 °C.
Work on `Oc1cnc(C(F)(F)F)nc1` yielded a melting point of 179 to 181 °C.
Work on `CC1(C)OC(=O)Nc2ccc(-c3cc([N+](=O)[O-])cc([N+](=O)[O-])c3)cc21` yielded a melting point of 297 to 298 °C.
For `COCC(=O)NNC(=O)N1Cc2ccccc2Oc2ccc(Cl)cc21`, the melting point was 167 to 169 °C.
`C[C@@H]1CCCN1CCCOc1ccc(C(=O)Cc2ccccn2)cc1` showed a melting point of 40 to 42 °C.
In the case of `COc1cn(-c2ccc(-c3cnn(C)c3)cc2F)nc(-c2ccnn2-c2ccccc2)c1=O`, the melting point is reported as 195 to 197 °C.
For `CC(C)(C)OC(=O)NCc1ccc(CC(=O)O)cc1`, the melting point was 89 to 91 °C.
For `COc1cccc(-n2c(CC(c3ccccc3)c3c[nH]c4ccccc34)nc3ccccc3c2=O)c1` (stereo not drawn), the melting point was 160 to 164 °C.
`NCCOc1ccc(C=CC(=O)N2CCc3c([nH]c4ccccc34)C2c2ccc3c(c2)CCO3)cc1` (stereo not drawn) showed a melting point of 186 °C.
In the case of `N#CCCn1c(=O)n(C2CCN(CCNC(=O)c3ccc(F)cc3)CC2)c2ccccc21`, the melting point is reported as 172 °C.
In the case of `COc1ccc(S(=O)(=O)c2ccc(NC(=O)NC34CC5CC(CC(C5)C3)C4)cc2)nn1`, the melting point is reported as 252 to 254 °C.
Work on `COc1cc(N)c2c(c1)OC(C)C2` (stereo not drawn) yielded a melting point of 59 to 61 °C.
For `CCCCNc1cc(C(=O)O)cc(S(N)(=O)=O)c1Oc1ccc(N)cc1`, the melting point was 264 °C.
`Cc1ccc(-c2ccccc2C(=O)NCCC#N)cc1` showed a melting point of 102 to 104 °C.
`Cc1cc(C)cc(C(=O)N2CC[C@H](NCc3ccnc4ccccc34)C[C@H]2Cc2ccc(Cl)cc2)c1` (relative stereo) showed a melting point of 148 to 149 °C.
`COC(=O)c1c(SC)c2cc(OC)ccc2n1C` gave a melting point of 89 to 91 °C.
In the case of `O=CCC1Cc2cc(Cl)c(Cl)cc2C1=O` (racemic), the melting point is reported as 93 to 96 °C.
Compound `Nc1nc(-c2cc(-c3c(F)cccc3Cl)no2)cs1` has a melting point of 168 to 169 °C.
With `CCCc1c(OCCCOc2ccc(N)cc2)ccc2c1OC(CCC(=O)OCC)(CCC(=O)OCC)CC2=O` the melting point was 126 to 127 °C.
Work on `O=C(O)c1ccc(-c2nc(-c3ccc(C(F)(F)F)cc3)co2)cc1` yielded a melting point of 258 to 259 °C.
In the case of `OCC1OC(n2cnc3c(Nc4ccccc4)cc(Cl)nc32)C(O)C1O` (stereo not drawn), the melting point is reported as 157 to 160 °C.
`COc1ccc(-c2ccccc2NC(=N)N(C)C)cc1` gave a melting point of 130 to 131 °C.
With `Cn1cc(-c2cnccn2)cc(Br)c1=O` the melting point was 196 to 197 °C.
